Assay results from the supplement of paper PMC10307832.

Key:
Assay in all cases: relative viability (nuclei count vs DMSO), 5 days (fraction); higher = more cells survive
IPA-3 + Luminespib = compound: C1=CC=C2C(=C1)C=CC(=C2SSC3=C(C=CC4=CC=CC=C43)O)O [IPA-3] + CCNC(=O)c1noc(-c2cc(C(C)C)c(O)cc2O)c1-c1ccc(CN2CCOCC2)cc1 [Luminespib] (partner 0.01 µM)
Summary of the method: (§1)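 Lung cancer cell lines were seeded in 1536-well plates and dosed by pin tool the next day, with either a single drug or a fixed anchor-drug dose combined with five library-drug doses (not always all listed) spaced in √10 steps. Five days later, one step fixed the cells and stained their nuclei (final 0.05% Triton X-100, 1% formaldehyde, 1 ug/ml Hoechst), and nuclei were counted on 4× images. Relative viability is the nuclei count in treated wells divided by the count in vehicle wells, and each value is the median of duplicate plates.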

IPA-3 + Pemetrexed = compound: C1=CC=C2C(=C1)C=CC(=C2SSC3=C(C=CC4=CC=CC=C43)O)O [IPA-3] + Nc1nc2[nH]cc(CCc3ccc(C(=O)N[C@@H](CCC(=O)O)C(=O)O)cc3)c2c(=O)[nH]1 [Pemetrexed] (partner 0.2 µM)
Summary of the method: as §1

Doramapimod + Foretinib = compound: Cc1ccc(-n2nc(C(C)(C)C)cc2NC(=O)Nc2ccc(OCCN3CCOCC3)c3ccccc23)cc1 [Doramapimod] + COc1cc2c(Oc3ccc(NC(=O)C4(C(=O)Nc5ccc(F)cc5)CC4)cc3F)ccnc2cc1OCCCN1CCOCC1 [Foretinib] (partner 0.25 µM)
Summary of the method: as §1

RAF265 + OSI-027 = compound: Cn1c(Nc2ccc(C(F)(F)F)cc2)nc2cc(Oc3ccnc(-c4ncc(C(F)(F)F)[nH]4)c3)ccc21 [RAF265] + COc1cccc2cc(-c3nc([C@H]4CC[C@H](C(=O)O)CC4)n4ncnc(N)c34)[nH]c12 [OSI-027] (partner 0.5 µM)
Summary of the method: as §1

| Cell Line | relative viability (IPA-3 + Luminespib; first compound 0.2 µM) | relative viability (IPA-3 + Luminespib; first compound 0.6325 µM) | relative viability (IPA-3 + Luminespib; first compound 2 µM) | relative viability (IPA-3 + Luminespib; first compound 6.325 µM) | relative viability (IPA-3 + Luminespib; first compound 20 µM) | relative viability (IPA-3 + Pemetrexed; first compound 0.2 µM) | relative viability (IPA-3 + Pemetrexed; first compound 0.6325 µM) | relative viability (IPA-3 + Pemetrexed; first compound 2 µM) | relative viability (IPA-3 + Pemetrexed; first compound 6.325 µM) | relative viability (IPA-3 + Pemetrexed; first compound 20 µM) | relative viability (Doramapimod + Foretinib; first compound 0.02 µM) | relative viability (Doramapimod + Foretinib; first compound 0.06325 µM) | relative viability (Doramapimod + Foretinib; first compound 0.2 µM) | relative viability (Doramapimod + Foretinib; first compound 0.6325 µM) | relative viability (Doramapimod + Foretinib; first compound 2 µM) | relative viability (RAF265 + OSI-027; first compound 0.01 µM) | relative viability (RAF265 + OSI-027; first compound 0.03162 µM) | relative viability (RAF265 + OSI-027; first compound 0.1 µM) | relative viability (RAF265 + OSI-027; first compound 0.3162 µM) | relative viability (RAF265 + OSI-027; first compound 1 µM) |
| --- | --- | --- | --- | --- | --- | --- | --- | --- | --- | --- | --- | --- | --- | --- | --- | --- | --- | --- | --- | --- |
| NCI-H1993 | 1.05 | 1.32 | 0.852 | 0.478 | 0.844 | 0.652 | 0.602 | 0.57 | 0.531 | 0.516 | 0.844 | 0.759 | 0.808 | 0.778 | 0.68 | 0.539 | 0.583 | 0.552 | 0.579 | 0.543 |
| NCI-H23 | 0.221 | 0.224 | 0.201 | 0.227 | 0.204 | 0.694 | 0.628 | 0.764 | 0.644 | 0.68 | 0.952 | 1.05 | 0.947 | 1.05 | 0.95 | 0.734 | 0.46 | 0.412 | 0.318 | 0.221 |
| NCI-H522 | 1.34 | 1.05 | 1.25 | 1.05 | 1.07 | 1.02 | 0.772 | 0.855 | 1.08 | 1.13 |  |  |  |  |  | 0.79 | 0.741 | 0.655 | 0.541 | 0.628 |
| NCI-H1437 | 1.15 | 0.951 | 1.1 | 1.03 | 1.24 | 0.298 | 0.294 | 0.32 | 0.323 | 0.334 | 1.37 | 1.39 | 1.35 | 1.38 | 1.2 | 0.863 | 0.918 | 0.82 | 0.982 | 0.611 |
| NCI-H1299 |  |  |  |  |  |  |  |  |  |  | 1.07 | 1.09 | 1.15 | 1.04 | 1.01 |  |  |  |  |  |
| NCI-H727 | 0.318 | 1.29 | 0.755 | 0.33 | 0.24 |  |  |  |  |  | 0.665 | 0.857 | 0.857 | 1.05 | 0.801 | 0.7 | 0.8 | 0.487 | 0.438 | 0.347 |
| Calu-6 |  |  |  |  |  |  |  |  |  |  | 0.903 | 0.914 | 0.941 | 0.942 | 0.919 |  |  |  |  |  |
| NCI-H1703 |  |  |  |  |  |  |  |  |  |  | 0.297 | 0.316 | 0.4 | 0.336 | 0.342 |  |  |  |  |  |
| EBC-1 |  |  |  |  |  |  |  |  |  |  | 0.117 | 0.102 | 0.0979 | 0.0935 | 0.1 |  |  |  |  |  |
| NCI-H1648 |  |  |  |  |  | 0.69 | 0.855 | 0.558 | 0.584 | 0.777 |  |  |  |  |  | 0.266 | 0.298 | 0.277 | 0.3 | 0.246 |
| HCC-44 | 1.12 | 0.995 | 1.21 | 0.947 | 1.25 | 0.607 | 0.575 | 0.588 | 0.617 | 0.616 |  |  |  |  |  | 0.735 | 0.479 | 0.636 | 0.449 | 0.477 |
| A549 |  |  |  |  |  |  |  |  |  |  | 0.91 | 1 | 0.992 | 1.06 | 0.875 |  |  |  |  |  |
| HCC-78 |  |  |  |  |  | 0.918 | 0.894 | 0.999 | 0.869 | 0.953 | 0.542 | 0.575 | 0.54 | 0.545 | 0.539 | 0.35 | 0.424 | 0.396 | 0.346 | 0.341 |
